# Like-named read-outs stand apart in the source and are kept apart here.
# Tested on: brain of rats subjected to severe traumatic brain injury (sTBI)
# [1] = 1 mg/kg, 2 days post-TBI, of 221 genes
# [2] = 1 mg/kg, 7 days post-TBI, of 2741 genes
# [3] = 5 mg/kg, 2 days post-TBI, of 221 genes
# [4] = 5 mg/kg, 7 days post-TBI, of 2741 genes
# [5] = 15 mg/kg, 2 days post-TBI, of 221 genes
# [6] = 15 mg/kg, 7 days post-TBI, of 2741 genes
# [7] = 3 repeated doses of 15 mg/kg, 7 days post-TBI, of 2741 genes
# [8] = DS 1 mg/kg, day 7 following TBI, relative to TBI model
# [9] = DS 5 mg/kg, day 7 following TBI, relative to TBI model
# [10] = DS 15 mg/kg, day 7 following TBI, relative to TBI model
# Method: As a starting point, a list and expression levels of molecules differentially regulated by dextran sulfate relative to a TBI model for the three different doses (1 mg/kg, 5 mg/kg and 15 mg/kg) of dextran sulfate at day 7 following TBI were established.
# Male Wistar rats of 300-350 g body weight were fed with standard laboratory diet and water ad libitum in a controlled environment. As the anesthetic mixture, the animals received 35 mg/kg b.w. ketamine and 0.25 mg/kg body weight midazolam by i.p. injection. Severe traumatic brain injury (sTBI) was induced by dropping a 450 g weight from 2 m height on to the rat head that had been protected by a metal disk previously fixed on the skull, according to the “weight drop” impact acceleration model (Marmarou et al., J Neurosurg. 1994; 80: 291-300). […] At the end of each period of treatment, rats were anesthetized again and then immediately sacrificed.
# LMW-DS (Tikomed AB) was provided at a stock concentration of 20 mg/ml and was kept in a temperature-monitored refrigerator at 4° C. LMW-DS aliquots were diluted to the appropriate dosing concentration in sterile saline prior to delivery of a single subcutaneous injection.
# Three doses of LMW-DS were administered subcutaneously 30 minutes post-TBI. The animals were sacrificed at 2 days post-TBI. The animals were divided into the following subgroups:
# Three doses of LMW-DS were administered subcutaneously 30 minutes post-TBI. The animals were sacrificed at 7 days post-TBI. The animals were divided into the following subgroups:
# An in vivo craniectomy was performed on all animals during anesthesia. After carefully removing the rat's skull, the brain was exposed and removed with a surgical spatula and quickly dropped in RNALater and preserved at 4° C. for further processing.
# The arrays used were the Agilent Rat expression arrays.
# Statistical analysis was performed to quantitate the effect of sTBI on the brain in this model. The follow-on analyses looked at the effects of LMW-DS in this model using different iterations and algorithms. Statistical analysis was carried out using the Metaboanalyst software package. Gene expression changes of 10% with a p<0.05 were regarded as significant.
substance,measurement,setting,value
sodium salt of dextran sulfate [LMW-DS],genes with altered TBI-specific expression,"1 mg/kg within 30 min after injury, 2 days of sTBI",372 genes
same,genes with altered TBI-specific expression,"1 mg/kg within 30 min after injury, 7 days of sTBI",3602 genes
same,genes differing from healthy controls,"1 mg/kg, 2 days after sTBI",209 genes
same,TBI-deregulated genes remaining deregulated relative to healthy controls,[1],22 genes
same,share of TBI-deregulated genes remaining deregulated,[1],10%
same,genes differing from healthy controls,"1 mg/kg, 7 days after sTBI",282 genes
same,TBI-deregulated genes remaining deregulated relative to healthy controls,[2],124 genes
same,share of TBI-deregulated genes remaining deregulated,[2],4.5%
same,genes with altered TBI-specific expression,"5 mg/kg within 30 min after TBI, 2 days of sTBI",702 genes
same,genes with altered TBI-specific expression,"5 mg/kg within 30 min after TBI, 7 days of sTBI",3852 genes
same,genes differing from healthy controls,"5 mg/kg, 2 days after sTBI",258 genes
same,TBI-deregulated genes remaining deregulated relative to healthy controls,[3],51 genes
same,share of TBI-deregulated genes remaining deregulated,[3],23%
same,genes differing from healthy controls,"5 mg/kg, 7 days after sTBI",398 genes
same,TBI-deregulated genes remaining deregulated relative to healthy controls,[4],169 genes
same,share of TBI-deregulated genes remaining deregulated,[4],6.1%
same,genes with altered TBI-specific expression,"15 mg/kg within 30 min after TBI, 2 days of sTBI",247 genes
same,genes with altered TBI-specific expression,"15 mg/kg within 30 min after TBI, 7 days of sTBI",3901 genes
same,genes differing from healthy controls,"15 mg/kg, 2 days after sTBI",47 genes
same,TBI-deregulated genes remaining deregulated relative to healthy controls,[5],19 genes
same,share of TBI-deregulated genes remaining deregulated,[5],8.5%
same,genes differing from healthy controls,"15 mg/kg, 7 days after sTBI",158 genes
same,TBI-deregulated genes remaining deregulated relative to healthy controls,[6],85 genes
same,share of TBI-deregulated genes remaining deregulated,[6],3.1%
same,genes differing from healthy controls,"3 repeated doses of 15 mg/kg, 7 days after sTBI",234 genes
same,TBI-deregulated genes remaining deregulated relative to healthy controls,[7],116 genes
same,share of TBI-deregulated genes remaining deregulated,[7],4.25%
same,AFP fold change (FC),[8],−1.439
same,ATP2A3 fold change (FC),[8],−1.284
same,ATP8A1 fold change (FC),[8],1.280
same,BDNF fold change (FC),[8],1.635
same,CRH fold change (FC),[8],1.253
same,FGF1 fold change (FC),[8],−1.366
same,HBEGF fold change (FC),[8],1.235
same,IL-17B fold change (FC),[8],1.863
same,KITLG fold change (FC),[8],−1.251
same,LDLR fold change (FC),[8],1.364
same,NOG fold change (FC),[8],1.304
same,PF4 fold change (FC),[8],−1.453
same,SLC1A4 fold change (FC),[8],1.498
same,SLC7A11 fold change (FC),[8],1.490
same,SLC16A7 fold change (FC),[8],1.493
same,SLC29A1 fold change (FC),[8],−1.370
same,SLC40A1 fold change (FC),[8],−1.345
same,TNFSF15 fold change (FC),[8],3.878
same,TSLP fold change (FC),[8],1.389
same,TTR fold change (FC),[8],−2.531
same,VAV3 fold change (FC),[8],−1.505
same,AFP fold change (FC),[9],−1.280
same,ATP2A3 fold change (FC),[9],−1.205
same,ATP8A1 fold change (FC),[9],1.223
same,BDNF fold change (FC),[9],1.708
same,CRH fold change (FC),[9],1.316
same,FGF1 fold change (FC),[9],−1.382
same,HBEGF fold change (FC),[9],1.274
same,IL-17B fold change (FC),[9],1.765
same,KITLG fold change (FC),[9],−1.274
same,LDLR fold change (FC),[9],1.291
same,NOG fold change (FC),[9],1.305
same,PF4 fold change (FC),[9],−1.331
same,SLC1A4 fold change (FC),[9],1.531
same,SLC4A1 fold change (FC),[9],−1.442
same,SLC7A11 fold change (FC),[9],1.469
same,SLC16A7 fold change (FC),[9],1.441
same,SLC29A1 fold change (FC),[9],−1.377
same,SLC40A1 fold change (FC),[9],−1.338
same,TNFSF15 fold change (FC),[9],4.302
same,TSLP fold change (FC),[9],1.446
same,TTR fold change (FC),[9],−1.915
same,VAV3 fold change (FC),[9],−1.418
same,AFP fold change (FC),[10],−1.208
same,ATP2A3 fold change (FC),[10],−1.216
same,ATP8A1 fold change (FC),[10],1.212
same,BDNF fold change (FC),[10],1.557
same,CRH fold change (FC),[10],1.293
same,FGF1 fold change (FC),[10],−1.213
same,GOSR1 fold change (FC),[10],1.233
same,HBEGF fold change (FC),[10],1.250
same,IL36RN fold change (FC),[10],1.284
same,IL-17B fold change (FC),[10],1.729
same,KITLG fold change (FC),[10],−1.261
same,LDLR fold change (FC),[10],1.212
same,NOG fold change (FC),[10],1.281
same,PF4 fold change (FC),[10],−1.244
same,SLC1A4 fold change (FC),[10],1.518
same,SLC4A1 fold change (FC),[10],−1.213
same,SLC7A11 fold change (FC),[10],1.477
same,SLC16A7 fold change (FC),[10],1.408
same,SLC29A1 fold change (FC),[10],−1.316
same,SLC40A1 fold change (FC),[10],−1.348
same,TNFSF15 fold change (FC),[10],3.939
same,TSLP fold change (FC),[10],1.322
same,TTR fold change (FC),[10],−2.179
same,VAV3 fold change (FC),[10],−1.318

# Reference: patent US20220128542A1, “TREATMENT EFFICIENCY EVALUATION” (TX MEDIC AB, priority 2019, published 2022)
